Measured values taken from ChEMBL document CHEMBL6096692, “Discovery of 2(1H)-Quinoxalinone Derivatives as Potent and Selective MAT2A Inhibitors for the Treatment of MTAP-Deficient Cancers” (J Med Chem, 2025).
In brackets after ≈: the same amount, converted by molar mass. Activity calls are given as the source filed them. No cut-off for these calls is given here.

What was measured:
NCI-H838 = experiment: Antiproliferative activity against MTAP null human NCI-H838 cells assessed as inhibition of cell viability measured for 96 hrs by SRB assay; assay type: functional, cell-based
[1] = molecular target: Protein arginine N-methyltransferase 5 (Homo sapiens) (UniProt O14744); experiment: Inhibition of PRMT5 in MTAP-null human MIA PaCa-2 cells incubated for 24 hrs by Western blot analysis; assay type: cell-based
Chain of Protein arginine N-methyltransferase 5 (Homo sapiens) (O14744 whole entry): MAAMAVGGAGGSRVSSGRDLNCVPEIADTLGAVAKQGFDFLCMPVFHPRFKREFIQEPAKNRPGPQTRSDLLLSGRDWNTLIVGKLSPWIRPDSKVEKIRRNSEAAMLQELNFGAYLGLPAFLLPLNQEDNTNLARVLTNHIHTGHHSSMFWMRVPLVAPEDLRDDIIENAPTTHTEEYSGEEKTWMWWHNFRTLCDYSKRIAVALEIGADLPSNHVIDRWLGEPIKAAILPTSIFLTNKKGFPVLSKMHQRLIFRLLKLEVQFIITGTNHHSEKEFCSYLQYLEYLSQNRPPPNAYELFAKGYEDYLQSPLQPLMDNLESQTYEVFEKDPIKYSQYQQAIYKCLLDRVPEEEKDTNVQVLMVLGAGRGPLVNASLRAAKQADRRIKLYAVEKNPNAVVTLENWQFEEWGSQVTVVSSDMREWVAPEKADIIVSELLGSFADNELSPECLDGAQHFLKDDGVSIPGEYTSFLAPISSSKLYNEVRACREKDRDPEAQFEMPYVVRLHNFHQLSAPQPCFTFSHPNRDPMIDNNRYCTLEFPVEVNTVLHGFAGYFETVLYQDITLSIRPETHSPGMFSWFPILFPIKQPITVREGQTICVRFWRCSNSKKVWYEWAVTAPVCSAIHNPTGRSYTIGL

MIA PaCa-2 [2] = experiment: Antitumor activity against MTAP null human MIA PaCa-2 cells xenografted in mouse assessed as inhibition of SAM production in plasma at 30 to 60 mg/kg, po measured after 28 days; assay type: functional, organism-based; details: dose 30-60 mg/kg, time 28.0 day
Daoy [3] = experiment: Antitumor activity against human Daoy cells xenografted in mouse assessed as reduction in SDMA level in tumor at 30 mg/kg, po measured after 28 days; assay type: functional, organism-based; details: time 28.0 day
[4] = Bioavailability in male ICR mouse at 1 mg/kg measured upto 36 hrs by LC-MS/MS analysis; assay type: ADME, organism-based; details: in vivo
[5] = Cmax in male ICR mouse at 1 mg/kg, iv measured upto 36 hrs by LC-MS/MS analysis; assay type: ADME, organism-based; details: in vivo
[6] = Kinetic solubility of compound in phosphate buffer at pH 7.4; assay type: physicochemical; details: read-out: Kinetic_solubility
MIA PaCa-2 [7] = experiment: Antiproliferative activity against MTAP null human MIA PaCa-2 cells assessed as inhibition of cell viability measured for 96 hrs by SRB assay; assay type: functional, cell-based
B16-F10 [8] = experiment: Antiproliferative activity against mouse B16-F10 cells harboring MTAP D220A mutant assessed as inhibition of cell proliferation measured for 96 hrs by SRB assay; assay type: functional, cell-based
[9] = molecular target: T1, S-adenosylmethionine synthase isoform type-2 (Homo sapiens, UniProt P31153); experiment: Inhibition of MAT2A in human MIA PaCa-2 cells assessed as reduction in SAM level measured for 4 hrs by immunoblotting analysis; assay type: cell-based; details: dose <= 1.0 µM
T1 sequence (P31153 whole entry, looked up, canonical isoform): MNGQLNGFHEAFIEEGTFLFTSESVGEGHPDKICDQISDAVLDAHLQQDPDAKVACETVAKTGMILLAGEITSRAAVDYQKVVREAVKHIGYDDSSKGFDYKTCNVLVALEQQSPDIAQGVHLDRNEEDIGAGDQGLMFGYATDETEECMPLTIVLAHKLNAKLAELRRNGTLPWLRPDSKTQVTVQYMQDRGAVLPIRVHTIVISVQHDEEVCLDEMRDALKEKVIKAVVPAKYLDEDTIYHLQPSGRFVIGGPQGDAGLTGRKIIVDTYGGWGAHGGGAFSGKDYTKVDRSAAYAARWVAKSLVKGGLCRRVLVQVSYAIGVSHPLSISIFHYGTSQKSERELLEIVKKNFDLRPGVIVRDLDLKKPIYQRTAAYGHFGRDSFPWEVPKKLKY

Cytochrome P450 2C19 = Cytochrome P450 2C19 (Homo sapiens, UniProt P33261); experiment: Inhibition of CYP2C19 in human liver microsomes using S-mephenytoin as substrate incubated for 10 mins in presence of NADPH by LC-MS/MS analysis; assay type: ADME, Microsome
Chain of Cytochrome P450 2C19 (P33261 whole entry): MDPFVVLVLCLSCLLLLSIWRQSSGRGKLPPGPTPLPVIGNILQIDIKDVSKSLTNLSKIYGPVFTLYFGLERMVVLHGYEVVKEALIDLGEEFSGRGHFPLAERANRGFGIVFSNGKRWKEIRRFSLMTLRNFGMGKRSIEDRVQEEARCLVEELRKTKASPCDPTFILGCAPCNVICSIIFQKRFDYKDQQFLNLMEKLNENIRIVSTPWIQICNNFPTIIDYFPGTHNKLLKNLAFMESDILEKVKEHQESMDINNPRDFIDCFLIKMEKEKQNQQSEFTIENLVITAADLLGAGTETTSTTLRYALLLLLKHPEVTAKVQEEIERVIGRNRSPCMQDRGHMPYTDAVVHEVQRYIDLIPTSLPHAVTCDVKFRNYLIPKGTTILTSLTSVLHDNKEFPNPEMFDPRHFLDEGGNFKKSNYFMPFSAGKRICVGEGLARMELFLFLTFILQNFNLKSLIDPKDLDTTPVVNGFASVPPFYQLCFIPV

B16-F10 [10] = experiment: Antitumor activity against MTAP-knockout mouse B16-F10 cells implanted in mouse assessed as reduction in tumor volume at 30 to 60 mg/kg, po administered for 10 days and measured after 12 days; assay type: functional, organism-based; details: dose 30-60 mg/kg, time 22.0 day
MDA-MB-231 = experiment: Antiproliferative activity against MTAP null human MDA-MB-231 cells assessed as inhibition of cell viability measured for 96 hrs by SRB assay; assay type: functional, cell-based
[11] = AUC (0 to t) in male ICR mouse at 10 mg/kg, po measured upto 36 hrs by LC-MS/MS analysis; assay type: ADME, organism-based; details: in vivo
SF-126 = experiment: Induction of DNA damage in MTAP knockout human SF-126 cells assessed as increase in gammaH2AX level at 0.1 to 10 uM measured for 96 hrs by Western blot analysis; assay type: functional, cell-based; details: dose 0.1-10 µM
[12] = Plasma protein binding in human assessed as unbound fraction; assay type: ADME, cell-free
[13] = Half life in male ICR mouse at 1 mg/kg, iv measured upto 36 hrs by LC-MS/MS analysis; assay type: ADME, organism-based; details: in vivo
B16-F10 [14] = experiment: Antiproliferative activity against mouse B16-F10 cells harboring wild type MTAP assessed as inhibition of cell viability measured for 96 hrs by SRB assay; assay type: functional, cell-based; details: B16-F10, 96 h
[15] = Half life in male ICR mouse at 10 mg/kg, po measured upto 36 hrs by LC-MS/MS analysis; assay type: ADME, organism-based; details: in vivo
Cytochrome P450 2C9 = Cytochrome P450 2C9 (Homo sapiens, UniProt P11712); experiment: Inhibition of CYP2C9 in human liver microsomes using diclofenac as substrate incubated for 10 mins in presence of NADPH by LC-MS/MS analysis; assay type: ADME, Microsome
Chain of Cytochrome P450 2C9 (P11712 whole entry): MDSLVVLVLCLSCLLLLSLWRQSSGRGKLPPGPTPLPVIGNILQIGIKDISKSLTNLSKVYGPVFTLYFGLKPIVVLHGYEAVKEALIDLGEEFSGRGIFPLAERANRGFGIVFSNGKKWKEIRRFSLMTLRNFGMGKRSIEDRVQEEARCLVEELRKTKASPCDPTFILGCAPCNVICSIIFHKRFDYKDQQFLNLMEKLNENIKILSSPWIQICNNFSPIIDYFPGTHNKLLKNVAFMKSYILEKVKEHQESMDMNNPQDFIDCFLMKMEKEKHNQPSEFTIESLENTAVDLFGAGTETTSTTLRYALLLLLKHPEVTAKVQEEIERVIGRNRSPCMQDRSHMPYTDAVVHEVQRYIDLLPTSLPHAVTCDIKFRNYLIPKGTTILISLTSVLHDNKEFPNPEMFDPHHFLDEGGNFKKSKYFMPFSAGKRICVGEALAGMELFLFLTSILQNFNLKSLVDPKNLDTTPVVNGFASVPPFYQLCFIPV

[16] = Plasma protein binding in mouse assessed as unbound fraction; assay type: ADME, cell-free
B16-F10 [17] = experiment: Antiproliferative activity against MTAP knockout mouse B16-F10 cells assessed as inhibition of cell viability measured for 96 hrs by SRB assay; assay type: functional, cell-based; details: B16-F10, 96 h
[18] = molecular target: T1, S-adenosylmethionine synthase isoform type-2; experiment: Inhibition of MAT2A in MTAP null human MIA PaCa-2 cells assessed as reduction in SAM level measured for 4 hrs by immunoblotting analysis; assay type: cell-based; details: dose <= 1.0 µM
[19] = Clearance in male ICR mouse at 1 mg/kg, iv measured upto 36 hrs by LC-MS/MS analysis; assay type: ADME, organism-based; details: in vivo
Daoy [20] = experiment: Antiproliferative activity against MTAP null human Daoy cells assessed as inhibition of cell viability measured for 96 hrs by SRB assay; assay type: functional, cell-based
B16-F10 [21] = experiment: Inhibition of MAT2A in MTAP knockout mouse B16-F10 cells assessed as reduction in SAM level measured for 4 hrs by immunoblotting analysis; assay type: cell-based; details: dose <= 1.0 µM
[22] = Lipophilicity, LogD of the compound in 1-Octanol/PBS by shake flask method; assay type: physicochemical
[23] = molecular target: Voltage-gated inwardly rectifying potassium channel KCNH2 (Homo sapiens, UniProt Q12809); experiment: Inhibition of hERG expressed in CHO cells incubated for 12 hrs by Qpatch assay; assay type: toxicity, cell-based
Chain of Voltage-gated inwardly rectifying potassium channel KCNH2 (Q12809 whole entry): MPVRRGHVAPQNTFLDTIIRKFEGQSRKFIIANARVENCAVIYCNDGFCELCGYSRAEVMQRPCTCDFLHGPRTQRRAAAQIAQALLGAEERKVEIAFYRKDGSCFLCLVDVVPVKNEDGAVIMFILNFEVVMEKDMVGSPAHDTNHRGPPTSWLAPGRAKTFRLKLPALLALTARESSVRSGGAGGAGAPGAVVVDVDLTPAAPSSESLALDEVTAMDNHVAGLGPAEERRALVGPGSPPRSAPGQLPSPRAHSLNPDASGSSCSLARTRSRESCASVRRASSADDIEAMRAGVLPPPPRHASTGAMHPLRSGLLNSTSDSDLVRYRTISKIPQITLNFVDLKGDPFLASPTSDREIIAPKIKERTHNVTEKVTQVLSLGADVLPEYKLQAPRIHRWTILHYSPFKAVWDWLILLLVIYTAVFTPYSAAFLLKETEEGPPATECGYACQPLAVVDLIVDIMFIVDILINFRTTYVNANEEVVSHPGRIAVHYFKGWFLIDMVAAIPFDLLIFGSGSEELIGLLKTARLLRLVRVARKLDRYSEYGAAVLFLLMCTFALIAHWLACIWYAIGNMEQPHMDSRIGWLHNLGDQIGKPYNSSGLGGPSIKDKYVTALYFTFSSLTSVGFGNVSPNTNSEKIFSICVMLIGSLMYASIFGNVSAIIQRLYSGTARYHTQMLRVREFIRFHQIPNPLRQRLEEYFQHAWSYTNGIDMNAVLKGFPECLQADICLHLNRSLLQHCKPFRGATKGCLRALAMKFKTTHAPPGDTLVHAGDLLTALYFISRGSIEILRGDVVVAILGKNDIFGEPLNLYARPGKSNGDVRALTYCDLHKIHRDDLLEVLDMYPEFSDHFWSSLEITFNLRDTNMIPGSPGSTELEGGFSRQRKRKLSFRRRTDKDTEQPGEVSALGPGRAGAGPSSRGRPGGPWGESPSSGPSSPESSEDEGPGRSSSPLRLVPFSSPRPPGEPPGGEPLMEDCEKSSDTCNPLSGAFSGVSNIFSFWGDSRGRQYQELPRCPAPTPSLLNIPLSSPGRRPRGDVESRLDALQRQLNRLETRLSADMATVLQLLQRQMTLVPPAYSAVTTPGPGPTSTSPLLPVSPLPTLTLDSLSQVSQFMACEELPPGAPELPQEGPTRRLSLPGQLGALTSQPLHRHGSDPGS

Daoy [24] = experiment: Antitumor activity against human Daoy cells xenografted in mouse assessed as tumor growth inhibition at 30 mg/kg, po measured after 28 days; assay type: functional, organism-based; details: time 28.0 day
Cytochrome P450 2D6 = Cytochrome P450 2D6 (Homo sapiens, UniProt P10635); experiment: Inhibition of CYP2D6 in human liver microsomes using dextromethorphan as substrate incubated for 10 mins in presence of NADPH by LC-MS/MS analysis; assay type: ADME, Microsome
Chain of Cytochrome P450 2D6 (P10635 whole entry): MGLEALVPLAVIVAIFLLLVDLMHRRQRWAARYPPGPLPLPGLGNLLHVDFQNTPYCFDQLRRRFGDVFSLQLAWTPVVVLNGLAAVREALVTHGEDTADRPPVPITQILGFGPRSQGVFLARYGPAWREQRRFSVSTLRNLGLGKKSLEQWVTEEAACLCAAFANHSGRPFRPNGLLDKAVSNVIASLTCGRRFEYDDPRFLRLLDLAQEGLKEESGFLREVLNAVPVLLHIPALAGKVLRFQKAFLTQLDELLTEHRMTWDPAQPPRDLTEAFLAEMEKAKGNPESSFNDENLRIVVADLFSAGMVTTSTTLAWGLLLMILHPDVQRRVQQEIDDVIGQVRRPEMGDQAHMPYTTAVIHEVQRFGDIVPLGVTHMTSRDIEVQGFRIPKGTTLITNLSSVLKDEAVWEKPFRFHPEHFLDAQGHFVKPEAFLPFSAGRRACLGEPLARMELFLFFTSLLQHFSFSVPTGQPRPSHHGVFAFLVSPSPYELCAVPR

B16-F10 [25] = experiment: Antitumor activity against mouse B16-F10 cells harboring wild type MTAP implanted in mouse assessed as reduction in tumor volume at 30 to 60 mg/kg, po administered for 10 days and measured after 12 days; assay type: functional, organism-based; details: dose 30-60 mg/kg, time 22.0 day
B16-F10 [26] = experiment: Antiproliferative activity against MTAP knockout mouse B16-F10 cells assessed as inhibition of cell proliferation measured for 96 hrs by SRB assay; assay type: functional, cell-based
B16-F10 [27] = experiment: Antitumor activity against MTAP-knockout mouse B16-F10 cells implanted in mouse assessed as reduction in SAM level in plasma at 30 to 60 mg/kg, po administered for 10 days and measured after 12 hrs; assay type: functional, organism-based; details: dose 30-60 mg/kg, time 10.5 day
[28] = Drug concentration in mouse plasma at 30 mg/kg, po; assay type: ADME, organism-based; details: in vivo
[29] = molecular target: S-adenosylmethionine synthase isoform type-2 (Mus musculus) (UniProt Q3THS6); experiment: Inhibition of MAT2A in mouse B16-F10 cells assessed as reduction in SAM level measured for 4 hrs by immunoblotting analysis; assay type: cell-based; details: dose <= 1.0 µM
Chain of S-adenosylmethionine synthase isoform type-2 (Mus musculus) (Q3THS6 whole entry, canonical isoform): as the sequence (P31153 whole entry, looked up, canonical isoform) above, with V77I, V87I counted along it

[30] = Selectivity index, ratio of IC50 for antiproliferative activity against MTAP knockout human SF-126 cells to IC50 for antiproliferative activity against human SF-126 cells harboring wild type MTAP; assay type: functional
MIA PaCa-2 [31] = experiment: Antitumor activity against MTAP null human MIA PaCa-2 cells xenografted in mouse assessed as inhibition of SAM production in tumor at 30 to 60 mg/kg, po measured after 28 days; assay type: functional, organism-based; details: dose 30-60 mg/kg, time 28.0 day
NCI-H1437 = experiment: Antiproliferative activity against MTAP null human NCI-H1437 cells assessed as inhibition of cell viability measured for 96 hrs by SRB assay; assay type: functional, cell-based
BXPC-3 = experiment: Antiproliferative activity against MTAP null human BXPC-3 cells assessed as inhibition of cell viability measured for 96 hrs by SRB assay; assay type: functional, cell-based

## Cn1cnc2ccc(-c3nc4ccc(C5CC5)cc4n(-c4ccc(OC(F)F)cc4)c3=O)cc21
NCI-H838
  Activity: Active
[1]
  inhibition: Active
MIA PaCa-2 [2]
  Activity: Active
Daoy [3]
  Activity: Active
[4]
  bioavailability: 118%
[5]
  Cmax: 985 ng/mL
[6]
  solubility kinetic: 3.11 µM (≈ 1.43 µg/mL)
MIA PaCa-2 [7]
  Activity: Active
B16-F10 [8]
  Activity: inactive
[9]
  inhibition: Dose-dependent-effect
Cytochrome P450 2C19
  IC50: 8.7 µM
B16-F10 [10]
  Activity: Active
MDA-MB-231
  Activity: Active
[11]
  AUC(0-t) at 36 h: 36500 ng·h/mL
SF-126
  Activity: Active
[12]
  fraction unbound: 0.003
[13]
  half-life: 506 min
B16-F10 [14]
  IC50: > 20 µM
[15]
  half-life: 404 min
Cytochrome P450 2C9
  IC50: 12.7 µM
[16]
  fraction unbound: 0.016
B16-F10 [17]
  IC50: 430 nM
[18]
  inhibition: Dose-dependent-effect
[19]
  clearance: 5.17 mL/min/kg
Daoy [20]
  Activity: Active
B16-F10 [21]
  inhibition: Dose-dependent-effect
[22]
  logD: 3.69
[23]
  IC50: 38 µM
Daoy [24]
  TGI: Active
Cytochrome P450 2D6
  IC50: 9.2 µM
B16-F10 [25]
  Activity: Active
B16-F10 [26]
  Activity: Active
B16-F10 [27]
  Activity: Active
[28]
  Drug uptake: Active
[29]
  inhibition: Dose-dependent-effect
[30]
  Ratio IC50: >57
MIA PaCa-2 [31]
  Activity: Active
NCI-H1437
  Activity: Active
BXPC-3
  Activity: Active
